The text below walks through data of US8513258B2, “Cinnamoyl-piperazine derivatives and their use as par-1 antagonists” (Pierre Fabre Medicament, priority 2006, dated 2013).

Molecules are shown by their SMILES.

One assay has as its target T1, PAR-1 receptor (Cricetulus griseus, UniProt A0A8C2QJ57).
T1 construct: Chinese hamster ovarian (CHO) cells constituently express PAR-1 receptor; endogenous in cells; host or cells: CHO cells
T1 sequence (A0A8C2QJ57 22-428): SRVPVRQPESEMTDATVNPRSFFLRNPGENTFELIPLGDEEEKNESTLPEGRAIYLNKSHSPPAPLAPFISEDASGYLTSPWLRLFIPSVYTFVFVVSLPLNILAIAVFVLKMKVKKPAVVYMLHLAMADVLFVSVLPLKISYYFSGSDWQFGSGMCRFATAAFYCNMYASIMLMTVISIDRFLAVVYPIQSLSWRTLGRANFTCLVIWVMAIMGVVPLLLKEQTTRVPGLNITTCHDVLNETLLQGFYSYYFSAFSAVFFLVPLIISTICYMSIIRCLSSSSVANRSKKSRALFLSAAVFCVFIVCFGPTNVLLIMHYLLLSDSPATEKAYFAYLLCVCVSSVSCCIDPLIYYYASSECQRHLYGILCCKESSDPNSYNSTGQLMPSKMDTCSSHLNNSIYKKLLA
The assay can be described thus: Antagonism of SFLLR-induced calcium release in CHO cells (FLIPR, Fluo-3AM). Particulars: agonist SFLLR-NH2, Arunlakshana and Schild method from EC50 shifts at three antagonist concentrations. The class given is cell-based, Chinese hamster. The method, then: In a variety of cell types, activation of PAR-1 receptors by the SFLLR peptide (a selective PAR-1 agonist) triggers an intracellular signal cascade leading to the release of calcium by the endoplasmic reticulum. Chinese hamster ovarian (CHO) cells constituently express PAR-1 receptor. In this cell line, the release of calcium consecutive to receptor activation by SFLLR is measured by a fluorometry technique (fluorometric imaging plate reader, or FLIPR) using a selective probe for calcium (Fluo-3AM). The emission of fluorescence is pharmacologically proportional to the efficiency of the PAR-1 agonist and to its concentration.
Culture medium: Ham's F-12 (Ham, R. G., Proc. Nat. Acad. Sci. 1965, 53: 288) supplemented with 10% fetal calf serum and […].
Fluorescent probe: Fluo-3AM (4 μM; Teflabs, Austin, Tex., USA)
Agonist: SFLLR-NH2 (Serine, phenylalanine, leucine, leucine, arginine).
Methods: CHO cells are inoculated in 96-well plates (60,000 cells per well) in the presence of 200 μl of culture medium for 24 hours. The cells are incubated with the calcium fluorescent probe for 1 hour at 37° C. The cells are then washed 10 minutes before the signal is measured. PAR-1 antagonist is then injected (0.01 μM to 10 μM). The plates are placed in the FLIPR (Molecular Devices, UK) to measure calcium fluorescence at two wavelengths (488 nm and 540 nm: Sullivan et al., Calcium Signaling Protocols 1999, 125-136). Measurements are taken for 5 min before the antagonist is added and for 10 min following its administration. Maximum fluorescence minus baseline fluorescence is measured in 4 different wells. The test is carried out in duplicate. Under these conditions, the derivatives of the present invention were identified as PAR-1 receptor antagonists (antagonism>60% of the calcium signal at 10 μM). The dose-response curves (0.01 μM to 32 μM) obtained with the SFLLR agonist allowed determination of the effective concentration inducing 50% of the maximum effect (EC50). The strengths (pA2) of some of the PAR-1 antagonists described in the present invention were calculated using the method of Arunlakshana and Schild (Brit. J. Pharmacol., 1959, 14: 48-58) from the EC50 shifts observed at three concentrations.
Turning to `O=C(C=Cc1c(F)cccc1F)N1CCN(Cc2ccc(F)c(F)c2)CC1` [Example 8, 1-[4-(3,4-Difluoro-benzyl)-piperazin-1-yl]-3-(2,6-difluoro-phenyl)-propenone], the pA2 (usually the negative logarithm of the molar antagonist concentration that doubles the agonist concentration needed for the same response) is 6.32.
The same measure, in the same setting: with `O=C(C=Cc1ccccc1F)N1CCN(Cc2ccc(F)cc2)CC1` [Example 2, 1-[4-(4-Fluoro-benzyl)-piperazin-1-yl]-3-(2-fluoro-phenyl)-propenone] the figure was 6.50; with `O=C(C=Cc1ccccc1[N+](=O)[O-])N1CCN(Cc2ccc(F)cc2)CC1` [Example 29, 1-[4-(4-Fluoro-benzyl)-piperazin-1-yl]-3-(2-nitro-phenyl)-propenone], 6.98.
Same read-out and setting: the figure for `Cc1cccc(CN2CCN(C(=O)C=Cc3c(F)cccc3F)CC2)c1` [Example 10, 3-(2,6-Difluoro-phenyl)-1-[4-(3-methyl-benzyl)-piperazin-1-yl]-propenone] is 6.46.
Still for that read-out and setting: the figure for `O=C(C=Cc1ccccc1Cl)N1CCN(Cc2ccccc2F)CC1` [Example 15, 3-(2-Chloro-phenyl)-1-[4-(2-fluoro-benzyl)-piperazin-1-yl]-propenone] is 6.39; for `Cc1ccc(CN2CCN(C(=O)C=Cc3ccccc3Cl)CC2)cc1` [Example 4, 3-(2-Chloro-phenyl)-1-[4-(4-methyl-benzyl)-piperazin-1-yl]-propenone] it is 6.05.
On to `O=C(C=Cc1ccccc1Br)N1CCN(Cc2ccc(F)cc2)CC1` [Example 3, 3-(2-Bromo-phenyl)-1-[4-(4-fluoro-benzyl)-piperazin-1-yl]-propenone], for which the pA2 stood at 6.36.

The assay is the same for the next values; noted with them: agonist SFLLR-NH2, Arunlakshana and Schild method from EC50 shifts at three antagonist concentrations, read-out: pA2 (converted).
On to `O=C(/C=C/c1ccccc1Cl)N1CCN(Cc2ccc(F)cc2)CC1` [Example 1, 3-(2-Chloro-phenyl)-1-[4-(4-fluoro-benzyl)-piperazin-1-yl]-propenone], for which the Kb was 380 nM.
Regarding `O=C(/C=C/c1ccccc1[N+](=O)[O-])N1CCN(CC2CCCCC2)CC1` [Example 25, 1-(4-Cyclohexylmethyl-piperazin-1-yl)-3-(2-nitro-phenyl)-propenone], the Kb was 166 nM.
In the case of `O=C(/C=C/c1ccccc1Cl)N1CCN(CC2CCCCC2)CC1` [Example 28, 3-(2-Chloro-phenyl)-1-(4-cyclohexylmethyl-piperazin-1-yl)-], the Kb is 759 nM.
